Results reported in ChEMBL document CHEMBL1201862, “PubChem BioAssay data set” (2004).
The source made the active and inactive calls.

Tests used:
[1] = biological target: T1, Protein Tat (Human immunodeficiency virus type 1 group M subtype B (isolate HXB2)(HIV-1), UniProt P04608); assay type: functional;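 further: tat binding to TAR RNA read out by fluorescence polarization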
T1 sequence (P04608 whole entry): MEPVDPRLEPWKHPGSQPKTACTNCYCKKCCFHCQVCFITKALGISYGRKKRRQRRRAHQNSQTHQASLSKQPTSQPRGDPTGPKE

[2] = inhibitors of Vif binding to APOBEC3G peptide, primary screen, biochemical, TR-FRET, GST-Vif 1-94, biotin-A3G peptide, dose response retest (AID 1117319); assay type: functional;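 further: TR-FRET signal of purified GST-Vif binding a biotinylated A3G peptide; inhibitors lower the FRET signal by blocking Vif and A3G binding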
[3] = biological target: T2, Epstein-Barr nuclear antigen 1 (Epstein-Barr virus (strain B95-8) (HHV-4) (Human herpesvirus 4), UniProt P03211); experiment: EBNA-1 inhibitors, dose response, biochemical, fluorescence polarization, 1536-well (AID 2381); set-up: species or system human gammaherpesvirus 4;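 further: fluorescence polarization of a Cy5 DNA probe bound by EBNA-1 protein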
T2 sequence (P03211 whole entry): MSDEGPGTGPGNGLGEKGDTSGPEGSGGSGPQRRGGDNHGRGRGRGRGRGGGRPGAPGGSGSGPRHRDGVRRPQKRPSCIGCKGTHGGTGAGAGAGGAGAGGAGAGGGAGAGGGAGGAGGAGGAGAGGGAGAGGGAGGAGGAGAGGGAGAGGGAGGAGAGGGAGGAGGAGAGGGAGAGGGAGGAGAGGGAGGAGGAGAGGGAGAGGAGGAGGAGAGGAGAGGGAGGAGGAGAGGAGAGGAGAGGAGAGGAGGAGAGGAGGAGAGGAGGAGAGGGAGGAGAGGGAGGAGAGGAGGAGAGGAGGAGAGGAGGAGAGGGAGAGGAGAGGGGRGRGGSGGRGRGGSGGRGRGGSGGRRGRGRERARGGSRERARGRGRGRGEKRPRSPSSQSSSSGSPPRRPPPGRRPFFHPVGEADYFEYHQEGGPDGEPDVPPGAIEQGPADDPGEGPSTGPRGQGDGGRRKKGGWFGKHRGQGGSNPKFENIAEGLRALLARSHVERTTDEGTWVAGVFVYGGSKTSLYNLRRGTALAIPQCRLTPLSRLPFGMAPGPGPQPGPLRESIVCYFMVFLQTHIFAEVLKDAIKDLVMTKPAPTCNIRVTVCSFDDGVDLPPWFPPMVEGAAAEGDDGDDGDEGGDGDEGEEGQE

[4] = biological target: T3, Lytic switch protein BZLF1 (Epstein-Barr virus (strain B95-8) (HHV-4) (Human herpesvirus 4), UniProt P03206); experiment: EBV ZTA inhibitors, dose response, counter-screen for EBNA-1 inhibitor project, biochemical, fluorescence polarization, Epstein-Barr virus, 1536-well (AID 2377); set-up: species or system human gammaherpesvirus 4;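 further: fluorescence polarization of Cy5-labelled ZRE DNA probe bound by purified Zta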
T3 sequence (P03206 whole entry): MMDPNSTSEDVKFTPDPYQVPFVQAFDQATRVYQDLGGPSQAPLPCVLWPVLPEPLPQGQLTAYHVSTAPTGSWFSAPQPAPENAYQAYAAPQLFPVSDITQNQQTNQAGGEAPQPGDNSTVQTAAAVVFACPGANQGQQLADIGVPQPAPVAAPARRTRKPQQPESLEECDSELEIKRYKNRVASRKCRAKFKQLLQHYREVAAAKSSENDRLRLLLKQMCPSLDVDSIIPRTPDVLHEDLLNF

[5] = biological target: T4, Estrogen receptor (Homo sapiens, UniProt P03372); experiment: potentiators of ERα–SRC-1 coactivator binding, dose response, biochemical, TR-FRET, ERα LBD (AID 737)
T4 sequence (P03372 whole entry): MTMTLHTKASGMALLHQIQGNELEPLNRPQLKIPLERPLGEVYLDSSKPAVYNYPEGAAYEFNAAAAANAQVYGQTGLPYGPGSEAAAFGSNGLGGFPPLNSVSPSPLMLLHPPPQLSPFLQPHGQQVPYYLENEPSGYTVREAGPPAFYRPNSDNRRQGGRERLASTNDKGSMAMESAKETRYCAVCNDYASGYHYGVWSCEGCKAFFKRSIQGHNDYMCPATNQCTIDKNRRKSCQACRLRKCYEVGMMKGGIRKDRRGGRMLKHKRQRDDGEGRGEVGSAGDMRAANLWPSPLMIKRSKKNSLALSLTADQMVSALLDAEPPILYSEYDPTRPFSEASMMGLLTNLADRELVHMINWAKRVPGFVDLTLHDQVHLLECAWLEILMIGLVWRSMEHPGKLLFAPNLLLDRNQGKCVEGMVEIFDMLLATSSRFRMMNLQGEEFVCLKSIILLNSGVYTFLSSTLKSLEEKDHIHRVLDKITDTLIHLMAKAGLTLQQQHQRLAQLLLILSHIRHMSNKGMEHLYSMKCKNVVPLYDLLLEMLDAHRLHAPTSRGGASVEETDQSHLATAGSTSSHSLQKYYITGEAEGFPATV

[6] = THP-1 cell cytotoxicity, dose response, cytotoxicity control for Vif-APOBEC3G degradation inhibitor project, THP-1 cells (AID 1117359); assay type: functional; conditions: Human immunodeficiency virus 1, THP-1
[7] = biological target: T5, Carboxy-terminal domain RNA polymerase II polypeptide A small phosphatase 1 (Homo sapiens, UniProt Q9GZU7); experiment: inhibitors of CTDSP1, concentration-response testing, biochemical assay, absorbance-based, actives from ultra-high-throughput screening (AID 540297); assay type: functional
T5 sequence (Q9GZU7 whole entry): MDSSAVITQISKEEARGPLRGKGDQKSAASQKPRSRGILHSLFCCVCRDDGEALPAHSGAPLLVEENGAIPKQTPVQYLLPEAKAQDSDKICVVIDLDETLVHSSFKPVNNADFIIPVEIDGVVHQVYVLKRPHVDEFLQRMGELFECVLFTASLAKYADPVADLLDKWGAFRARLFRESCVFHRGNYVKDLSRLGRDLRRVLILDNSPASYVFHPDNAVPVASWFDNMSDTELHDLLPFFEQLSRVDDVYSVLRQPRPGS

[8] = biological target: T6, Estrogen receptor beta (Homo sapiens, UniProt Q92731);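 further: recombinant ER-beta bound to coactivator SRC1 peptide in presence of estradiol agonist; inhibitors block coactivator peptide binding and lower the FRET signal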
T6 sequence (Q92731 whole entry): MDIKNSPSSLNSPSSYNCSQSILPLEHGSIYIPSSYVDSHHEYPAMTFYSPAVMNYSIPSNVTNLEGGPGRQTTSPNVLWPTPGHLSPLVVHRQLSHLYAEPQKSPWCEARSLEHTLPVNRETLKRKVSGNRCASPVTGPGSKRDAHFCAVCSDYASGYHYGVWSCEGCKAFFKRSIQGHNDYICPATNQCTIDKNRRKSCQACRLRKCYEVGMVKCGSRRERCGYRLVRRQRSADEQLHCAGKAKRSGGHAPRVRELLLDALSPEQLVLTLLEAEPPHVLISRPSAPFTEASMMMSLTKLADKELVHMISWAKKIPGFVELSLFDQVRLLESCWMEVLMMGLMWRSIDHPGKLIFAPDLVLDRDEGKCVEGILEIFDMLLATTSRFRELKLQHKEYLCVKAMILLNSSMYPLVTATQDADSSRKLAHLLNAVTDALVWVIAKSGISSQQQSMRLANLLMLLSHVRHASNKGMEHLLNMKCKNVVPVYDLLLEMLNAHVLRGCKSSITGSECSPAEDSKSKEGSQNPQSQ

[9] = biological target: T6, Estrogen receptor beta; experiment: ERβ–SRC-3 coactivator interaction inhibitors, confirmation, orthogonal assay, biochemical, ELISA, streptavidin-HRP readout (AID 1060)

Cc1ccc(-n2c(C)cc(C(=O)OCC(=O)N(CC(C)C)C3CCS(=O)(=O)C3)c2C)cc1 (configuration not stated)
IC50 [1]: > 100 µM (active) | IC50 [2]: > 100 µM (active)

COc1ccc(C(=O)OCC(=O)c2c(N)n(C)c(=O)n(C)c2=O)cc1OC
IC50 [2]: > 100 µM (active)

CCc1nnc(NC(=O)CSc2ccc(-c3nc4ccccc4[nH]3)cn2)s1
IC50 [3]: 17.1 µM (not active) | IC50 [4]: > 111 µM (not active)

CSc1ccccc1NC(=O)Cn1nnc(-c2ccc(S(C)(=O)=O)cc2)n1
IC50 [3]: 6.17 µM (active) | IC50 [4]: > 111 µM (not active)

O=C(Oc1cccc(-c2cnc3ccccc3n2)c1)c1ccco1
EC50 [5]: 26.9 µM (active)

CCC(C(=O)Nc1cc(C(=O)O)ccc1C)c1ccccc1 (configuration not stated)
CC50 [6]: > 40 µM (active)

Sc1nnc(-c2cc(-c3ccco3)[nH]n2)n1-c1ccccc1Cl
IC50 [7]: 5.55 µM (active) | IC50 [8]: > 50 µM (not active) | IC50 [9]: > 109 µM (not active)
